Results taken from the SangsterLogP compilation.

Assay: method code SF-HPLC, from DOI: 10.1021/ac9902291

Row | SMILES | logP
1 | c1ccc2c(c1)sc1ccccc12 | 4.36
2 | O=S1(=O)C=Cc2ccccc21 | 1.01
3 | Cc1cccc2sccc12 | 3.57
4 | Cc1cccc2ccsc12 | 3.85
5 | Cc1cc2ccccc2s1 | 3.71
6 | c1ccc2c(c1)ccc1sc3ccccc3c12 | 5.19

Other lines, results leading:

Row | logP | SMILES
7 | 4.55 | c1ccc2c(c1)ccc1ccsc12
8 | 4.95 | c1cc2ccc3cccc4sc(c1)c2c34
9 | 4.41 | c1ccc2c(c1)ccc1sccc12
10 | 4.5 | c1ccc2cc3sccc3cc2c1
11 | 5.35 | c1ccc2c(c1)ccc1c3ccsc3ccc21
